Laboratory results reported in patent publication US9649305B2, “PFKFB3 inhibitor and methods of use as an anti-cancer therapeutic” (ADVANCED CANCER THERAPEUTICS, LLC, priority 2012, dated 2017).
Where two headings read alike, the source gives them in different places.

Key:
[1] = molecular target: T1, PFKFB3 (Homo sapiens, UniProt Q16875); assay: Enzymatic activity of PFKFB3 in cells (F2,6BP levels, Van Schaftingen method); assay type: cell-based; parameters: endogenous in cells; host or cells: Jurkat cells; settings: read-out: IC50, Enzymatic activity of PFKFB3 in cells
T1 sequence (Q16875 whole entry): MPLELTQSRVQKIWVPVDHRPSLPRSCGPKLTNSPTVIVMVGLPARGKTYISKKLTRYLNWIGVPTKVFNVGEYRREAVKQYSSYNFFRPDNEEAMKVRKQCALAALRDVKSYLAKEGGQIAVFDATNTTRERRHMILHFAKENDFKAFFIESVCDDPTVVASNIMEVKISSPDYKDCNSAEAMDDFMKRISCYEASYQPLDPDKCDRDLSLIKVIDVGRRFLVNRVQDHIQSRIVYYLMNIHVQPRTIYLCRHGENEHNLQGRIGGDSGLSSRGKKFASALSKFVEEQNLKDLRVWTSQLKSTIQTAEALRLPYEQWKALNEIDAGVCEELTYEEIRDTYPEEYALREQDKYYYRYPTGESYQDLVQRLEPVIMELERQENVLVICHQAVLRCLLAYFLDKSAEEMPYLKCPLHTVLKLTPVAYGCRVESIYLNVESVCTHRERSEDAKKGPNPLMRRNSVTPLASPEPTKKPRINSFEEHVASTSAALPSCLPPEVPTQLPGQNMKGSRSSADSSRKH
Description: Inhibition of PFKFB3 can also be measured in cells by measuring fructose-2,6-biphosphate levels according to the Van Schaftingen method (Eur. J. of Biochem, 129: 191 (1982)). This method enables measurement of the inhibition in a cellular environment, a model more relevant than the pure recombinant protein. Briefly, Jurkat cells were plated at 1×10^5 cells/mL and incubated with different concentrations of PFK-158 for 3 hours. Samples were collected and cells were lysed. Extracts were characterized as described in previous reports and normalized to protein concentration.

[2] = Repeat-dose toxicology study in SD rats; assay type: in vivo
Description: Toxicology studies were performed in SD rats comparing PFK-158 and PFK-015 using a repeat dosing schedule. The studies were performed at dose levels ranging from 5 to 30 mg/kg and animals were monitored for weight loss, behavior, clinical signs, and clinical chemistries. At the end of the study, gross pathology and histopathology were performed.

[3] = test system: Jurkat cells; assay: Inhibition of 14C-2-deoxyglucose uptake; assay type: cell-based; settings: Homo sapiens, read-out: IC50, Inhibition of 2 deoxyglucose uptake
Description: Inhibition of PFKFB3 results in inhibiting glycolysis. Several feedback or feedforward activation and inhibition mechanisms exist so that, by a feedback mechanism, inhibiting the activity of PFKFB3 might inhibit glucose uptake by cells. An assay was developed to determine if there was inhibition of glucose uptake following exposure PFK-158. Briefly, Jurkat cells were plated at 10^5 cells/mL in RPMI 1640 supplemented with 10% fetal bovine serum and 50 μg/mL gentamicin sulfate. Cells were immediately treated with vehicle or 0.5 μmol/L of PFK-158 for 3 hours and subsequently placed in glucose-free RPMI 1640 for 30 min. ^14C-2-deoxyglucose (0.25 μCi/mL; Perkin Elmer) was added for an additional 60 min and cells were then washed three times with ice-cold RPMI 1640 containing no glucose. Cell lysates were collected in 500 μL of 0.1% SDS and scintillation counts (counts/min) were measured on 400 μL of lysate. Counts were normalized to protein concentration.

[4] = test system: Jurkat cell line (leukemia cell line); assay: Toxicity / cell growth of Jurkat cell line; assay type: cell-based; settings: Homo sapiens, Jurkat, read-out: IC50, toxicity of Jurkat cell line (leukemia cell line)
Description: The ability of PFK-158 to kill or inhibit the proliferation of cancer cells was measured using either the MTT assay, the alamarBlue® assay (Invitrogen, Grand Island, N.Y.), or the CellTiter Glo™ assay (Promega, Madison, Wis.) using 48 or 72 hours exposure.
Cells of the desired tumor cell line were plated at 2×10^5 cells/ml in 96 well plates. Twice the indicated concentrations of the compounds of the invention were added to cells the following day in an equal volume of media. 72 hours later, cells were lysed and subjected to ATP determination using the CellTiter-Glo™ Luminescent Cell Viability Assay kit. Experiments were performed in triplicate. When using the MTT assay or the alamarBlue® assay, the experimental conditions are essentially similar; at the end of the incubation period, 20 microliters of the MTT solution is added per well and the samples are incubated for an additional four hours, rinsed, and absorbance at 570 nm was measured. Results for the inhibition of cell proliferation are reported as the IC50 (the concentration resulting in 50% inhibition of proliferation of the cell population) and are listed in Table 5 below. Cell lines include lung, colon, prostate, breast, ovarian, and pancreatic cancer lines.

[5] = In vitro stability in human liver microsomes; assay type: in vitro ADME
[6] = IV pharmacokinetics in mice; assay type: in vivo, Balbc mice; settings: mouse, plasma, 5 mg/kg, IV dosing; for AUC(0-inf): read-out: AUC0-inf; for Cmax: read-out: Cmax
Description: The pharmacokinetic (PK) parameters for PFK-158 were determined in mice following IV (intravenous) administration in mice and rats. A typical study design includes six animals (male or female) 7 to 8 weeks old.
Mouse pharmacokinetic properties using a dose of 5 mg/kg were determined after IV administration using a 10% DMSO, 10% PEG-200, 10% Solutol:ethanol (1:1) and 70% D5W solution or any other pharmaceutically acceptable parenteral formulation. Blood samples were collected at different intervals. Plasma samples were extracted and analyzed using an LC-MS/MS method. Similar protocols were used for the rat PK study (Sprague Dawley rats; 30 mg/kg), although the formulation for rat PK studies differed (30% Captisol, pH 3.0 solution). Time vs. plasma concentration plots were prepared as shown in FIGS. 4 (BalbC mice) and 5 (SD rats), respectively. Pharmacokinetic parameters were calculated and are provided below in Table 7.

[7] = Maximum tolerated dose study; assay type: in vivo; settings: C57/B16, mouse, in vivo; 3 days on/3 days off schedule; read-out: MTD
Description: Several maximum tolerated dose studies and toxicology studies were performed and the results indicated PFK-158 is safer than PFK-015. Studies were performed in C57/B16 mice and SD rats.

[8] = test system: lung cancer model, pancreatic cancer model, colon cancer model; assay: Tumor growth inhibition in mouse cancer models; settings: mouse cancer models, during treatment
Description: Studies determining efficacy of PFK-158 at inhibiting tumor growth in mouse cancer models were performed. These studies were carried out with PFK-158 alone and in combination with compounds currently used in the treatment of cancer patients. Studies were performed in a lung cancer model, a pancreatic cancer model, and in a colon cancer model.
Efficacy of PFK-158 was studied in vivo in tumor models. Several tumor models were used in these studies (the Lewis lung carcinoma, or LLC model, the CT-26 colon carcinoma tumor model, or the BXPC3 pancreatic cancer model). The experimental protocol for the LLC study is described below. Subsequent to subcutaneous inoculation of tumor cells, tumors started to develop and once tumors reached the desired volume of 100-125 mm^3 on average, treatment was initiated. Tumor volume was monitored in both groups and the average for both the control and treatment groups was measured three times a week, as well as body weights.
Briefly, normal female C57BL/6 mice at 7-8 weeks of age were used for the study. Mice were housed in microisolator housing, with food and water provided as libitum, and quarantined for 4 days prior to the initiation of the study. LLC cells were maintained in a monolayer culture in DMEM medium supplemented with 10% heat inactivated fetal calf serum, 100 U/ml penicillin and 100 μg/ml streptomycin, and L-glutamine (2 mM) at 37° C. in an atmosphere of 5% CO2 in air. The tumor cells were routinely sub-cultured twice a week. The cells growing in an exponential phase were harvested and counted for tumor inoculation. Each mouse was inoculated subcutaneously at the right flank with the LLC tumor cells (3×10^5) in 0.1 ml of PBS for tumor development. When athymic nude mice were used, as for the BxPC3 model, then the strain of mice is slightly different. Furthermore, the use of Matrigel supports tumor development, meaning that cells are suspended in 100 μl of a mixture of medium/Matrigel (1:1) and are then subcutaneously implanted in the right flank region. Animals were monitored for tumor growth daily after cell implantation. When tumor volumes reached approximately 100-125 mm^3, mice were randomized into groups of 8 mice each using only mice having tumor volumes closest to the mean value. Tumor volumes were measured using the formula V=L×W×H×π/6, where L and W represent the longer and shorter diameters of the tumor and H represents the height of the tumor. Treatment began following randomization. PFK-158 was administered IP at a dose of 60 mg/kg on days 1, 3, 5, 7, 9, 11, and 13.
Similar protocols were used for the other studies using different models; differences included the use of Balbc/nude mice; administering larger number of cancer cells; and use of Matrigel.

[9] = molecular target: T1, PFKFB3; assay: Enzymatic activity of recombinant PFKFB3, ADP-Glo assay; assay type: biochemical
Description: The inducible bifunctional 6-Phosphofructo-2-kinase/fructose2,6-biphosphatase enzyme (PFKFB3) was expressed and purified in order to determine if PFK-158 inhibits enzymatic activity. PFKFB3 was prepared by expression in E. coli and purified by GST column and column chromatography. […] The recombinant protein was pure and active as determined by the results of a commercially available kinase activity assay (ADP-Glo™, Promega, Madison, Wis.).

[10] = IV pharmacokinetics in rats, 40 mg/kg; assay type: in vivo; settings: IV 40 mg/kg; for Plasma AUC0→t: Captisol solution
Description: (§1) In another embodiment, a cyclodextrin based solution was used to investigate the PK profile of PFK-158, 2HCl at a higher concentration in both rats and dogs.
(§2) The solution was prepared with 40% w/v Captisol® in water for injection, 5% Mannitol, and a pH 2.3 citrate buffer leading to a 8 mg/ml concentration of PFK-158, 2HCl. This solution was safely administered IV to rats and dogs at a dose of 40 mg/kg. Blood samples were taken over a 24 hour period and analyzed. […] Pharmacokinetic parameters were calculated in the same way in dogs: plasma AUC0→24 values of 16,100±700 and 15,900±2600 hr·ng/mL, and plasma C5 min values of 6960±1180 and 6900±900 ng/mL were obtained for male and female dogs, respectively.

[11] = IV pharmacokinetics in dogs, 40 mg/kg; assay type: in vivo; settings: IV 40 mg/kg
Description: as §1, §2

[12] = Table 8, read-out: IC50, Enzymatic activity of PFKFB3, ADP-Glo Assay

SMILES	IC50 ([1]; Table 8)	IC50 ([3]; Jurkat, Table 8)	clearance ([6]; Table 9, BalbC mice)	half-life ([6]; Table 9, BalbC mice)	AUC(0-inf) ([6]; Table 9, BalbC mice)	Cmax ([6]; Table 9, BalbC mice)	IC50 [9, 12]	IC50 ([4]; Table 8)	also measured
O=C(/C=C/c1ccc2ccccc2n1)c1ccncc1 [PFK-015]									IC50 ([1]; Table 1, F2,6BP levels, Jurkat cells): 4.7 ± 1.6 µM; MTD ([2]; rat, in vivo, repeat dosing schedule): 12 mg/kg; Adverse observations in toxicology study ([2]; repeat dosing, PFK-158 5 to 30 mg/kg, PFK-015 12 and 25 mg/kg): adverse observations at both dose levels; IC50 ([3]; Table 1, Jurkat cells): 1.2 ± 0.1 µM; IC50 ([4]; Table 1): 0.8 ± 0.1 µM; Percent metabolized after 1 hr [5]: 67%; clearance ([6]; Table 2, Balbc mice): 46 mL/min/kg; half-life ([6]; Table 2, Balbc mice): 5 h; AUC(0-inf) ([6]; Table 2, Balbc mice): 1800 ng·h/mL; Cmax ([6]; Table 2, Balbc mice): 3050 ng/mL; MTD [7]: 30 mg/kg; body weight loss [8]: higher than 15%; IC50 ([9]; Table 1, read-out: IC50, Enzymatic activity of PFKFB3, ADP Glo Assay): 0.318 ± 0.019 µM
O=C(/C=C/c1ccc2cc(OCCN3CCCCC3)ccc2n1)c1ccncc1 [PFK-150, 3-(6-(2-piperidin-1-yl-ethoxy)-quinolin-2-yl)-1-pyridin-4-yl-propenone]	15.6 ± 1.4 µM	3.8 ± 0.8 µM	1330 mL/min/kg	2.5 h	63 ng·h/mL	40 ng/mL	0.802 ± 0.177 µM	2.5 ± 0.4 µM	
COc1ccc2nc(/C=C/C(=O)c3ccnc(OC)c3)ccc2c1 [PFK-144, 1-(2-methoxy-pyridin-4-yl)-3-(6-methoxy-quinolin-2-yl)-propenone]	10.7 ± 0.3 µM	3.1 ± 0.5 µM	120 mL/min/kg	2.8 h	696 ng·h/mL	1500 ng/mL	0.654 ± 0.094 µM	1.7 ± 0.3 µM	
Cl.Cl.O=C(/C=C/c1ccc2ccc(C(F)(F)F)cc2n1)c1ccncc1 [PFK-158, 2HCl]									plasma Cmax ([10]; female rats): 39,500±10,000 ng/mL; Plasma AUC0→t ([10]; female rats): 27,700±5800 hr·ng/mL; plasma Cmax ([10]; male rats): 51,400±6300 ng/mL; Plasma AUC0→t ([10]; male rats): 37,600±2800 hr·ng/mL; plasma AUC0→24 ([11]; female dogs): 15,900±2600 hr·ng/mL; plasma C5 min ([11]; female dogs): 6900 ± 900 ng/mL; plasma AUC0→24 ([11]; male dogs): 16,100±700 hr·ng/mL; plasma C5 min ([11]; male dogs): 6960 ± 1180 ng/mL
O=C(/C=C/c1ccc2cccc(C(F)(F)F)c2n1)c1ccncc1 [PFK-153, 1-Pyridin-4-yl-3-(8-trifluoromethyl-quinolin-2-yl)-propenone]	6 ± 0.6 µM	1.2 ± 0.6 µM	327 mL/min/kg	3.8 h	225 ng·h/mL	397 ng/mL	0.173 ± 0.023 µM	0.9 ± 0.1 µM	

Now from value to compound, other results behind:

IC50 ([1]; Table 8)	IC50 ([3]; Jurkat, Table 8)	clearance ([6]; Table 9, BalbC mice)	half-life ([6]; Table 9, BalbC mice)	AUC(0-inf) ([6]; Table 9, BalbC mice)	Cmax ([6]; Table 9, BalbC mice)	IC50 [9, 12]	SMILES	IC50 ([4]; Table 8)	also measured
7.4 ± 1.8 µM	2.2 ± 0.3 µM	154 mL/min/kg	0.7 h	541 ng·h/mL	991 ng/mL	0.431 ± 0.034 µM	COc1ccc2nc(/C=C/C(=O)c3ccncc3)ccc2c1 [PFK-138, 3-(6-methoxy-quinolin-2-yl)-1-pyridin-4yl-propenone]	1.2 ± 0.2 µM	
11.3 ± 0.6 µM	2.2 ± 0.6 µM	75 mL/min/kg	6.1 h	1100 ng·h/mL	672 ng/mL		Cc1ccc2ccc(/C=C/C(=O)c3ccncc3)nc2c1 [PFK-154, 3-(7-Methyl-quinolin-2-yl)-1-pyridin-4-yl-propenone]	1.3 ± 0.1 µM	
